{"source": "patent EP4603497A1", "about": "“CRYSTAL FORM OF CYANO-SUBSTITUTED POLYPEPTIDE COMPOUND AND PREPARATION METHOD THEREFOR” (Fujian Akeylink Biotechnology Co., Ltd., priority 2022, dated 2024)", "key": {"in vivo": {"assay": "in vivo", "design": "species or system SD rats", "settings": "rat; for AUC(0-t): AUC0-last; for half-life: T1/2", "procedure": "In this study, male and female SD rats were selected as test animals.\nAnimals were grouped according to 3 per group/gender. […] The plasma drug concentration was determined using LC-MS/MS method. Table 14: Pharmacokinetic parameters in rats"}, "[1]": {"assay": "stability of the crystal form under different conditions (XRPD confirmation)", "assay_type": "physicochemical", "source_text": "Table 6: Stability test under different conditions"}, "[2]": {"assay": "hygroscopicity by dynamic vapor sorption (DVS)", "assay_type": "physicochemical", "procedure": "• Instrument model: SMS DVS Advantage dynamic vapor sorption analyzer • Test conditions: A sample (10 to 30 mg) is taken and placed in a DVS sample tray for testing. • The detailed parameters for DVS are as follows: • Temperature: 25°C • Equilibrium: dm/dt = 0.002%/min (minimum: 10 minutes, maximum: 180 minutes) • RH (%) range: 70%RH-95%RH-0%RH-95%RH • RH (%) gradient: 10% (90%RH-0%RH-90%RH), 5% (95%RH-90%RH and 90%RH-95%RH)."}, "coronavirus HCoV OC43": {"tested_on": "coronavirus HCoV OC43", "assay": "in vitro anti-coronavirus activity, cytopathic model (CPE, CellTiter Glo)", "assay_type": "cell-based", "settings": "Betacoronavirus 1, 120 h; MRC5 cells, HCoV OC43 100TCID50/well, 5 days", "procedure": "MRC5 cells and coronavirus HCoV OC43 were purchased from ATCC.\nMRC5 cells were cultured in MEM (Sigma) culture medium supplemented with 10% fetal bovine serum (Excell), 1% dual antibody (Hyclone), 1% L-glutamine (Gibco), and 1% non-essential amino acids (Gibco). MEM (Sigma) culture medium supplemented with 5% fetal bovine serum (Excell), 1% dual antibody (Hyclone), 1% L-glutamine (Gibco), and 1% non-essential amino acids (Gibco) was used as the experimental culture medium.\nCells were seeded at a certain density (Table 12) into a 96-well plate and incubated overnight in a 5% CO2, 37°C incubator. The next day, the diluted compound (8 concentration points, double replicate wells) was added thereto, 50 µL per well. Then the diluted virus was added to each well at 100 TCID50, 50 µL per well. Cell controls (cells, no compound treatment or virus infection), virus controls (cells infected with virus, no compound treatment), and culture medium controls (only culture medium) were set up. […] Cell viability was detected using the CellTiter Glo (Promega) cell viability assay kit. […]\n(§1) The inhibition rate and cell viability of the compound were analyzed using GraphPad Prism for non-linear fitting, and the half-maximal effective concentration (EC50) and half-maximal cytotoxic concentration (CC50) values of the compound were calculated. […]"}, "SARS-CoV-2 Mpro": {"molecular_target": "T1, SARS-CoV-2 Mpro (Severe acute respiratory syndrome coronavirus 2, UniProt P0DTD1)", "T1 construct": "SARS-CoV-2 Mpro; purchased WuXi AppTec", "assay": "in vitro anti-SARS-CoV-2 Mpro protease activity (fluorescent substrate assay)", "assay_type": "biochemical", "settings": "25 nM Mpro protein, 25 µM substrate", "procedure": "The compound was dissolved in DMSO, diluted in a 3-fold gradient using Echo655 according to the required test concentration, with 10 concentration points. Each concentration was duplicated and added to a 384-well plate. The Mpro protein and substrate were diluted with a test buffer (100 mM NaCl, 20 mM Tris-HCl, 1 mM EDTA), and the Mpro protein was added to the 384-well test plate, incubated with the compound at room temperature for 30 min, then the substrate was added. The test concentration of the Mpro protein was 25 nM and the test concentration of the substrate was 25 µM. The mixture was incubated in a constant temperature incubator at 30°C for 60 minutes. Then, the fluorescence signal value at Ex/Em = 340 nm/490 nm was detected using a microplate reader. At the same time, the background well containing substrate and compound but not containing Mpro protein was detected as a control. […]"}, "coronavirus OC43 strain": {"tested_on": "coronavirus OC43 strain", "assay": "in vivo antiviral efficacy, suckling mouse infection model", "settings": "once a day for 7 consecutive days, first dose 2 hours before inoculation", "quoted_text": "Experimental example 4: Evaluation of the in vivo antiviral efficacy of the test compound using a suckling mouse infection model with the coronavirus OC43 strain"}, "[3]": {"assay": "cytotoxicity experiment (same conditions, without virus infection)", "assay_type": "cell-based", "settings": "human; MRC5 cells, 5 days, no virus", "procedure": "Cells were seeded at a certain density (Table 12) into a 96-well plate and incubated overnight in a 5% CO2, 37°C incubator. The next day, the diluted compound (8 concentration points, double replicate wells) was added thereto, 50 µL per well. Then the diluted virus was added to each well at 100 TCID50, 50 µL per well. Cell controls (cells, no compound treatment or virus infection), virus controls (cells infected with virus, no compound treatment), and culture medium controls (only culture medium) were set up. The final volume of the experimental culture medium was 200 µL, with a final DMSO concentration of 0.5% in the culture medium. The cells were incubated for 5 days in a 5% CO2, 33°C incubator. Cell viability was detected using the CellTiter Glo (Promega) cell viability assay kit. The conditions for the cytotoxicity experiment were the same as for the antiviral experiment, but without virus infection.\nThe antiviral activity and cytotoxicity of the compound were represented by the inhibition rate (%) and the cell viability (%) of the cytopathic effect caused by the virus at different concentrations of the compound, respectively. […]\nas §1"}}, "data": [{"molecule": "CC(C)(C)[C@H](NC(=O)C(F)(F)F)C(=O)N1[C@H]2C[C@@H]([C@H]1C(=O)N[C@H](C#N)C[C@@H]1CCNC1=O)C1(CC1)C2", "note": "[Crystal form A]", "values": [{"measurement": "AUC0-last", "setting": "in vivo; iv, 2 mg/kg", "result": 778, "unit": "ng·h/mL"}, {"measurement": "AUC(0-inf)", "setting": "in vivo; iv, 2 mg/kg", "result": 785, "unit": "ng·h/mL"}, {"measurement": "Cl", "setting": "in vivo; iv, 2 mg/kg", "result": 42.5, "unit": "mL/min/kg"}, {"measurement": "T1/2", "setting": "in vivo; iv, 2 mg/kg", "result": 18.2, "unit": "min"}, {"measurement": "Vdss", "setting": "in vivo; iv, 2 mg/kg", "result": 1.04, "unit": "L/kg"}, {"measurement": "AUC(0-inf)", "setting": "in vivo; iv, 2 mg/kg, AUC0-inf", "result": 804, "unit": "ng·h/mL"}, {"measurement": "AUC(0-t)", "setting": "in vivo; iv, 2 mg/kg", "result": 792, "unit": "ng·h/mL"}, {"measurement": "clearance", "setting": "in vivo; iv, 2 mg/kg, Cl", "result": 42.4, "unit": "mL/min/kg"}, {"measurement": "half-life", "setting": "in vivo; iv, 2 mg/kg", "result": 19.8, "unit": "min"}, {"measurement": "Vd", "setting": "in vivo; iv, 2 mg/kg, Vdss", "result": 1.11, "unit": "L/kg"}, {"measurement": "AUC0-last", "setting": "in vivo; po, 30 mg/kg", "result": 9910, "unit": "ng·h/mL"}, {"measurement": "Tmax", "setting": "in vivo; po, 30 mg/kg", "result": 30, "unit": "min"}, {"measurement": "AUC(0-inf)", "setting": "in vivo; po, 30 mg/kg, AUC0-inf", "result": 5980, "unit": "ng·h/mL"}, {"measurement": "AUC(0-t)", "setting": "in vivo; po, 30 mg/kg", "result": 5960, "unit": "ng·h/mL"}, {"measurement": "half-life", "setting": "in vivo; po, 30 mg/kg", "result": 49.6, "unit": "min"}, {"measurement": "Tmax", "setting": "in vivo; po, 30 mg/kg, Tmax", "result": 55, "unit": "min"}, {"measurement": "Confirmation of crystal form by XRPD after completion of the experiment", "setting": "[1]; High humidity condition (25°C/92.5%RH), 30 days", "result": "Crystal form A"}, {"measurement": "Confirmation of crystal form by XRPD after completion of the experiment", "setting": "[1]; High temperature (60°C), 30 days", "result": "Crystal form A"}, {"measurement": "Confirmation of crystal form by XRPD after completion of the experiment", "setting": "[1]; Illumination (5000 ± 500 lux (visible light) and 90 µw/cm^2 (ultraviolet)), 10 days", "result": "Crystal form A"}, {"measurement": "hygroscopic weight gain", "setting": "[2]; 25°C and 80% RH", "result": 0.114, "unit": "%"}, {"measurement": "hygroscopicity", "setting": "[2]; 25°C and 80% RH", "result": "no or almost no hygroscopicity"}, {"measurement": "ΔW", "setting": "[2]; DVS pattern, Figure 16", "result": 0.114, "unit": "%"}]}, {"molecule": "CC(C)(C)[C@H](NC(=O)C(F)(F)F)C(=O)N1[C@H]2C[C@@H]([C@H]1C(=O)N[C@H](C#N)C[C@@H]1CCNC1=O)C1(CC1)C2", "note": "[Compound 1]", "values": [{"measurement": "EC50", "setting": "coronavirus HCoV OC43", "result": 5.1, "unit": "nM"}, {"measurement": "EC90", "setting": "coronavirus HCoV OC43", "result": 7.9, "unit": "nM"}, {"measurement": "IC50", "setting": "SARS-CoV-2 Mpro", "result": 1.8, "unit": "nM"}, {"measurement": "Median survival time", "setting": "coronavirus OC43 strain; 12.5 mg/kg", "result": "> 14", "unit": "days"}, {"measurement": "Survival rate", "setting": "coronavirus OC43 strain; 12.5 mg/kg", "result": 87.5, "unit": "%"}, {"measurement": "Median survival time", "setting": "coronavirus OC43 strain; 25 mg/kg", "result": "> 14", "unit": "days"}, {"measurement": "Survival rate", "setting": "coronavirus OC43 strain; 25 mg/kg", "result": 100, "unit": "%"}, {"measurement": "Median survival time", "setting": "coronavirus OC43 strain; 50 mg/kg", "result": "> 14", "unit": "days"}, {"measurement": "Survival rate", "setting": "coronavirus OC43 strain; 50 mg/kg", "result": 100, "unit": "%"}, {"measurement": "CC50 at 120 h", "setting": "[3]", "result": "> 10000", "unit": "nM"}]}]}
